Data as given in ChEMBL document CHEMBL3507680, “University of Dundee, Gates Library screen for HepG2 cell viability”.

Experiment: Human HepG2 cell viability assay in 384 well format
Type: toxicity, cell-based
Design: dose 125 nL, time 70.5 hour; cytotoxicity at 70.5 h: concentration not given beside the values
Conditions: HepG2 cells, read-out: Inhibition

SMILES	cytotoxicity at 70.5 h [%]
N#Cc1cccnc1N1CCN(C(=O)c2cccs2)CC1	-3
Cc1ccc(-c2cc(CS(=O)(=O)NC3CCCNC3=O)on2)cc1 (centres undefined)	0.495
Cc1cc(CC(C)NC(=O)c2n[nH]c3c2CCC3)n[nH]1 (centres undefined)	3.59
Cc1cc(NC(=O)NCCO)nn1-c1ccc(Cl)cc1Cl	0.498
Cc1cc(NC(=O)CO)nn1-c1ccc(Cl)cc1Cl	4.81
COCCN(CCOC)C(=O)c1cnn(C)c1-n1c(C)ccc1C	1.05
CCCN(CCC)C(=O)c1cnn(C)c1C	9.54
Cc1cc(C)cc(OCCN(C)C2CCOC2=O)c1 (centres undefined)	1.42
CN(CCOc1ccccc1F)C1CCOC1=O (centres undefined)	-1.46
COc1ccccc1NC(=O)CCNC(=O)c1ccoc1	0.887
CS(=O)(=O)c1ccc(Cl)c(C(=O)NCCC2=CCCCC2)c1	32.9
CCOC(=O)c1ccc(S(=O)(=O)NCC(CC)N2CCCC2)cc1 (centres undefined)	-5.87
COCc1ccccc1NC(=O)c1ccoc1	-15
CC(C)CN(CC(F)(F)F)S(=O)(=O)c1cc(C(N)=O)n(C)c1	1.58
CC(C)C1CCCN1C(=O)Nc1ccc(=O)n(C)c1 (centres undefined)	15
CC(=O)NCCNC(=O)NCc1ccc(-n2ccc(C(F)(F)F)n2)cc1	-6.79
COc1ccc(NCCC(=O)NCc2cccnc2N(C)C)cc1	-8.23
Cn1cc(NC(=O)N2CCCC2c2ccccn2)ccc1=O (centres undefined)	-5.4
c1ccc2c(NC3CCc4ncnn4C3)ncnc2c1 (centres undefined)	-4.29
CCNC(=O)NCc1ccc(-n2ccc(C(F)(F)F)n2)cc1	-3.86
Cc1nc2n(n1)CC(Nc1nc(C(F)(F)F)nc3ccccc13)CC2 (centres undefined)	-1.15
Cc1cnn(C2CN(Cc3nc4cc(Cl)ccc4n3C)C2)c1	7.22
COC(=O)c1occc1Cn1cc(Br)cn1	-2.08
Cn1cc(CCCN2CCCC(c3cc(C(F)(F)F)[nH]n3)C2)cn1 (centres undefined)	6.94

SMILES	cytotoxicity at 70.5 h [%]
Cc1nc(S(=O)(=O)N2CCCCc3ccccc32)cn1C	9.73
OCCC1CCN(c2ccnc3ccsc23)C1 (centres undefined)	-3.95
COCCNS(=O)(=O)c1c(C)sc2ccccc12	-4.03
CCOC(=O)C1(NCC(=O)Nc2cc(C)ccc2OC)CCCC1	21.1
Cn1cc(CC(=O)N2CCCC(c3ccn[nH]3)C2)cn1 (centres undefined)	-1.63
COCCN(Cc1ccccn1)C(=O)Nc1cccnc1-n1cccn1	18.4
CCN(Cc1ccco1)C(=O)NCC(C)N1CCc2sccc2C1 (centres undefined)	13.6
Cc1ccc(-c2noc(CCC(=O)NC(C)Cn3cccn3)n2)cc1 (centres undefined)	-7.96
Cc1cccc2c1OCCC2NCc1c(C(C)C)nn(C)c1N(C)C (centres undefined)	-10.6
CCS(=O)(=O)CC(=O)NC(C)c1ccc(OCCC(C)C)cc1 (centres undefined)	-1.31
O=C(CCn1cnc2cc(F)c(F)cc21)N1CCN2CCCCC2C1 (centres undefined)	-1.04
CCCNc1nnc(S(=O)(=O)CCOCC)s1	-0.768
CC(NC(=O)CSCC(N)=O)c1ccc(Oc2ccccc2)cc1 (centres undefined)	-8.85
O=C(NCCO)Nc1ccc(Cl)cc1-n1cccc1	0.77
CN(CC(=O)NC(N)=O)CC1(c2ccc(Br)cc2)CC1	-1.35
Cc1nc(COc2ccc(OC3CCCCNC3=O)cc2)oc1C (centres undefined)	1.82
Cc1cc(COc2ccc(OC3CCCCNC3=O)cc2)on1 (centres undefined)	-3.96
CN(CC(N)=O)CC1(c2ccc(Br)cc2)CC1	-5.53
CN1CCC(NC(=O)Nc2cnn(-c3ccccc3Cl)c2)C1=O (centres undefined)	-7.73
CC(C)OCCC(=O)NCC(O)c1c(Cl)cccc1Cl (centres undefined)	-3.94
Cc1ccc(S(=O)(=O)N2CCOCC2C(N)=O)c(F)c1 (centres undefined)	-8.93
COc1cccc(-c2n[nH]cc2CNC2CCCN(C)C2)c1 (centres undefined)	-5.83
CC(C)OCc1ccccc1CNC(=O)C(C)S(=O)(=O)C(C)C (centres undefined)	-5.26
COC(=O)c1ccc(NC(C)c2ccc3c(c2)NC(=O)CO3)nn1 (centres undefined)	-1.28

SMILES	cytotoxicity at 70.5 h [%]
CC(C)c1noc(CCNC(=O)NCC2Cc3ccccc3O2)n1 (centres undefined)	-13.5
CCOc1ccc(SCCS(=O)(=O)CC)cc1	-6.32
COC(=O)c1ccc(Cl)c(NS(=O)(=O)c2cnn(C)c2)c1	10.2
Cc1[nH]ccc1C(=O)NCC1CC(=O)N(CCc2ccccc2)C1 (centres undefined)	-3.09
CC(C)N(C)S(=O)(=O)N(C)Cc1cnn(C)c1	-3.87
CCCc1noc(CCCC(=O)N2CCCC(n3ccnc3C)C2)n1 (centres undefined)	-2.44
CCOc1ccc(CNC(=O)N2CCCC(CO)C2)cc1F (centres undefined)	0.25
Cc1nccn1C1CCCN(C(=O)CCc2nc(C(C)C)no2)C1 (centres undefined)	-11.2
CCCc1noc(CCC(=O)N2CCCC(n3ccnc3C)C2)n1 (centres undefined)	-9.38
CN(Cc1ccco1)C(=O)NCc1ccnc(SC(C)(C)C)c1	-8.67
O=C(NC1CCCCNC1=O)c1cc2ccccc2[nH]c1=O (centres undefined)	-15.7
O=C(NCc1ccc2c(c1)OCCO2)N1CCC(CO)CC1	4.7
NC(=O)C1CCN(C(=O)NCc2ccc3c(c2)OCCO3)CC1	-9.87
CC(=O)NCC1CCN(C(=O)NCCc2ccc3c(c2)OCO3)CC1	-17.3
CC(=O)NCC1CCN(C(=O)NCc2ccc3c(c2)OCCO3)CC1	-16.3
CCC(C)(CNC(=O)Nc1nncs1)N1CCOCC1 (centres undefined)	-13.4
CCc1nc(C)c(C(=O)NCCNc2ncnc3sccc23)s1	4.06
CCc1ncncc1C(=O)NCCNc1ncnc2sccc12	-21.7
N#Cc1ccc(CN2CCN(C(=O)CCn3cncn3)CC2)cc1	6.05
CCCc1noc(CCC(=O)N2CCN(C)CC2c2ccccc2)n1 (centres undefined)	-15
Cc1ccc(C(=O)NC2CCCCNC2=O)c(=O)[nH]1 (centres undefined)	-6.58
CN(c1ccc(F)cc1)S(=O)(=O)c1cc2c(c(C(=O)O)c1)OCCO2	-10.5
CN(c1c(F)cccc1F)S(=O)(=O)c1cc2c(c(C(=O)O)c1)OCCO2	9.94
CN(c1ccc(F)c(F)c1)S(=O)(=O)c1cc2c(c(C(=O)O)c1)OCCO2	-7.51

SMILES	cytotoxicity at 70.5 h [%]
O=S(=O)(Cc1ccccc1)c1nnc(N2CCCC2)s1	-2.76
Cc1nc(C2CCCN(C(=O)C3=NN(C(C)C)C(=O)CC3)C2)no1 (centres undefined)	-9.12
O=S(=O)(Cc1ccccc1)c1nnc(N2CCOCC2)s1	-9.13
CN(CC1CCC1)C(=O)Nc1cccnc1-n1cncn1	-12.4
CC(C)Oc1ncc(C(=O)N2CCc3ccc(O)cc3C2)cc1Cl	15.8
O=C(Nc1cccnc1-n1cncn1)N(C1CCCC1)C1CC1	-7.6
Cc1nnc(C(C)Nc2cccc(COCCc3ccccc3)c2)o1 (centres undefined)	-8.73
CN1CCC(C(=O)N2CCCN(c3cccnn3)CC2)C1 (centres undefined)	-14.6
CC(=O)NCCCSC1CCN(c2c(F)cccc2F)C1=O (centres undefined)	22.9
CC(=O)NCCCSC1CCCN(c2ccccc2F)C1=O (centres undefined)	-6.35
Cc1ccnc(NCc2cccc(OCCN3CCOCC3)c2)n1	32.7
N#Cc1cn(CCCN2CCc3ccccc3C2)c(=O)[nH]c1=O	-5.98
CS(=O)(=O)Nc1cccc(CNC(=O)CCC(=O)c2cccs2)c1	-3.24
Cc1cccnc1NC(=O)C1CCCN(c2cccc(C(F)(F)F)n2)C1 (centres undefined)	-0.942
O=C(NC1CC1)C1CCN(c2cccc(C(F)(F)F)n2)CC1	-1.37
CC(=O)NC1CCCN(Cc2ccc(OCc3ccccn3)cc2)C1 (centres undefined)	-6.3
O=C(CN1CCS(=O)(=O)CC1)NC1CCCOc2ccccc21 (centres undefined)	-3.91
CC(C(=O)N1CCC(Cc2ccc(F)cc2)CC1)n1ccnc1 (centres undefined)	20.4
O=C1NCC(C(=O)N(Cc2cccc(Br)c2)C2CC2)N1 (centres undefined)	26.3
O=C(CCn1ccc2ccccc21)N1CCC(Nc2cccnn2)CC1	-3.47
CCOCC(=O)N(Cc1ccccn1)Cc1ccccc1C	-4.52
CS(=O)(=O)Cc1ccc(Cl)cc1NCc1ccccc1F	27.6
Cc1ccccc1CN(Cc1ccccn1)C(=O)CNS(C)(=O)=O	25.2
COC(=O)c1ccc(F)c(Cn2nc(C)cc2C)c1	4.73

SMILES	cytotoxicity at 70.5 h [%]
O=c1[nH]nc(SCC2CCCCO2)n1C1CC1 (centres undefined)	28.8
CSCC(=O)N(Cc1ccccn1)Cc1ccccc1C	-4.08
Clc1cncc(NCc2cccc(OCCN3CCOCC3)c2)n1	-8.21
CC(CS(C)(=O)=O)N(C(=O)c1ccc(Cl)s1)C1CC1 (centres undefined)	-9.46
CC(c1ccco1)N(C(=O)NCc1ccon1)C1CC1 (centres undefined)	56.7
Cc1noc(C)c1CNC(=O)N(C1CC1)C(C)c1ccco1 (centres undefined)	-3.98
Cc1cc(CNc2ccc(CC(=O)N(C)c3ccccc3)cc2)no1	0.0494
CC(C)c1noc(C(C)S(=O)(=O)Cc2nc(C3CC3)no2)n1 (centres undefined)	-4.5
O=C(NCCCN1CCOCC1)c1ccnc(OCc2ccccc2)c1	-1.25
Cn1ccc2c(C(=O)NCCCN3CCCC3)cccc21	-3.04
COc1cc(C2(C(=O)NCC(=O)NC3CC3)CC2)ccc1C	-5.44
COc1cc(C2(C(=O)NC3CCC4(CC3)OCCO4)CC2)ccc1C	-4.1
OC(CNCCn1cccn1)COc1ccc(Br)cc1 (centres undefined)	-5.72
CC(C)n1cc(CN2CCCN(C(=O)c3cccnc3O)CC2)cn1	-2.94
CC(C)n1cc(CN2CCCN(C(=O)c3cccn3C)CC2)cn1	-2.47
CCc1ccc(C(=O)N2CCCC2c2c(C)nn(C)c2OC)o1 (centres undefined)	-6.13
COc1c(C2CCCN2C(=O)c2cccn2C)c(C)nn1C (centres undefined)	13.8
COc1c(C2CCCN2C(=O)c2ccnn2C)c(C)nn1C (centres undefined)	-4.02
CCn1ccnc1CN1CCN(Cc2cccnc2)CC1C (centres undefined)	7.86
CNc1cc(N2CCCC2CNCc2ccc(C)o2)ncn1 (centres undefined)	5.47
CC(C)c1nn(C)c(N(C)C)c1CNC1CCc2cc(F)ccc21 (centres undefined)	5.83
COc1cccc(-c2n[nH]cc2CNC2CCN(C3CC3)CC2)c1	29.3
CCOC(=O)c1ccccc1NC(=O)CN(C)Cc1ccccc1Cl	3.31
